Among the data in patent US10882838B2, “Cannabinergic compounds and uses thereof” (Northeastern University, priority 2012, dated 2021) are Ki values, retold here.

For one assay, the target named is CB1 receptor (Rattus norvegicus (Rat), UniProt P20272). The assay is described as follows: rCB1 competition-equilibrium binding with [3H]CP-55,940, rat brain membranes. The conditions noted are these: rat brain membranes, [3H]CP-55,940; read-out: rCB1 Ki. How it is done:
Frozen rat brains (CB1 source) are obtained from Pel-Freeze Biologicals (Rogers, Ak.) and stored at −80° C. until use. Membranes are prepared according to the method described by Dodd et al. and used in our laboratory as reported.
(§1) All the cannabinoids discussed in this invention are tested for their ability to bind to CB1 and CB2 receptors using membranes from rat brain or HEK293 cells expressing either mCB2 or hCB2, respectively via competition-equilibrium binding using [^3H]CP-55,940. Results are analyzed using nonlinear regression to determine ligand IC50 (Prism by GraphPad Software, Inc.), and Ki values are calculated from the IC50. IC50 and Ki values are determined from at least three independent experiments.

Another assay concerns the target mCB2 receptor (Mus musculus (Mouse), UniProt P47936). Nature of the assay: mCB2 competition-equilibrium binding with [3H]CP-55,940, membranes of HEK293 cells expressing mCB2. The conditions noted are these: HEK293 cells expressing mCB2, [3H]CP-55,940; read-out: mCB2 Ki. On the procedure:
(§2) HEK293 cells expressing hCB1 or hCB2 or mCB2 receptor are used for membrane preparations according to Abadji et al. The resulting pellet is resuspended in 10 mM Tris-chloride, pH 7.4, with 5 mM MgCl2 and 2 mM EDTA (TME), rapidly frozen in liquid nitrogen and stored at −80° C. for no longer than two months. Protein content is assayed by using the Bio-Rad protein assay according to the manufacturer's protocol.
as §1

For a further assay, the target named is hCB2 receptor (Homo sapiens (Human), UniProt P34972). Nature of the assay: hCB2 competition-equilibrium binding with [3H]CP-55,940, membranes of HEK293 cells expressing hCB2. The conditions noted are these: HEK293 cells expressing hCB2, [3H]CP-55,940; read-out: hCB2 Ki. How it is done: as §2, §1

For the compound `CCCCOC(=O)C(C)(C)c1cc(O)c2c(c1)OC(C)(C)[C@H]1CC=C(C)C[C@@H]21` [Compound 1.4, Butyl-2-((6aS, 10aR)-6a, 7, 10, 10a-tetrahydro-1-hydroxy-6,6,9-trimethyl-6H-benzo[c]chromen-3-yl)-2-methylpropanoate], the figures for the inhibition constant (Ki) at CB1 receptor, at mCB2 receptor and on hCB2 receptor were 0.6 nM, 0.6 nM and 0.7 nM, respectively.

In the case of `CC1=CC[C@H]2[C@@H](C1)c1c(O)cc(C(C)(C)C(=O)OCCCCCBr)cc1OC2(C)C` [Compound 1.5, 5-bromopentyl-2-((6aS,10aR)-6a,7,10,10a-tetrahydro-1-hydroxy-6,6,9-trimethyl-6H-benzo[c]chromen-3-yl)-2-methylpropanoate], the results for the Ki on CB1 receptor, on mCB2 receptor and at hCB2 receptor were 1.2 nM, 0.5 nM and 0.6 nM, respectively.

For `CCOC(=O)C(C)(C)c1cc(O)c(-c2cc(Cl)cc(Cl)c2)c(O)c1` [Compound 4.8, Ethyl 2-(3′,5′-dichloro-2,6-dihydroxybiphenyl-4-yl)-2-methylpropanoate], the Ki (in general, the dissociation constant of the complex between target and ligand, obtained from inhibition or displacement) on hCB2 receptor was 20.9 nM.

On to `CCCCCCC(O)(CC(=O)O)c1cc(O)c2c(c1)OC(C)(C)[C@@H]1CC=C(C)C[C@@H]21` (stereo partly drawn) [Compound 1.22, 3-hydroxy-3-((6aR,10aR)-1-hydroxy-6,6,9-trimethyl-6a,7,10,10a-tetrahydro-6H-benzo[c]chromen-3-yl)nonanoic Acid], for which the Ki on CB1 receptor turned out to be 600 nM; at mCB2 receptor it was 1000 nM; on hCB2 receptor, 1000 nM.

For `CC1=CC[C@@H]2[C@@H](C1)c1c(O)cc([C@@H](C)C(=O)O)cc1OC2(C)C` [Compound 1.13, (R)-2-((6aR,10aR)-1-hydroxy-6,6,9-trimethyl-6a,7,10,10a-tetrahydro-6H-benzo[c]chromen-3-yl)propanoic Acid], the Ki on CB1 receptor, at mCB2 receptor and at hCB2 receptor was > 10000 nM each time.

In the case of `CCOC(=O)C(C)(C)c1cc(OC)c(-c2cccc(C#N)c2)c(OC)c1` [Compound 4.1, Ethyl 2-(3′-cyano-2,6-dimethoxybiphenyl-4-yl)-2-methylpropanoate], the Ki at CB1 receptor, at mCB2 receptor and at hCB2 receptor was > 1000 nM throughout.

As to `CCOC(=O)C(C)(C)c1cc(O)c(-c2cccc(C#N)c2)c(O)c1` [Compound 4.2, Ethyl 2-(3′-cyano-2,6-dihydroxybiphenyl-4-yl)-2-methylpropanoate], the inhibitory constant (Ki) at CB1 receptor amounted to 3660 nM; on hCB2 receptor it was 94.8 nM.

As to `CC1=CC[C@@H]2[C@@H](C1)c1c(O)cc(C(C)(C)C(=O)OCCCBr)cc1OC2(C)C` [Compound 1.7, 3-bromopropyl-2-((6aR, 10aR)-6a, 7, 10, 10a-tetrahydro-1-hydroxy-6,6,9-trimethyl-6H-benzo[c]chromen-3-yl)-2-methylpropanoate], the Ki was found to be 0.8 nM on CB1 receptor, 1.1 nM at mCB2 receptor and 0.6 nM on hCB2 receptor.

As for `CC1=CC[C@@H]2[C@@H](C1)c1c(O)cc(C(C)(C)CO)cc1OC2(C)C` [Compound 1.32, (6aR,10 aR)-3-(1-hydroxy-2-methylpropan-2-yl)-6,6,9-trimethyl-6a,7,10,10a-tetrahydro-6H-benzo[c]chromen-1-ol], on CB1 receptor, the Ki turned out to be 447 nM.

Take `CCCCOC(=O)C(C)(C)c1cc(O)c2c(c1)OC(C)(C)[C@@H]1CC[C@@H](CO)C[C@H]21` [Compound 3.9, Butyl 2-((6aR,9R,10aS)-1-hydroxy-9-(hydroxymethyl)-6,6-dimethyl-6a,7,8,9,10,10a-hexahydro-6H-benzo[c]chromen-3-yl)-2-methylpropanoate]: the Ki on CB1 receptor was determined as 2.4 nM; on mCB2 receptor, 4.3 nM; on hCB2 receptor, 6.5 nM.

As to `CC1=CC[C@@H]2[C@@H](C1)c1c(O)cc(C(C)(C)C(=O)OCCCC#N)cc1OC2(C)C` [Compound 1.8, 3-cyanopropyl-2-((6aR,10aR)-6a,7,10,10a-tetrahydro-1-hydroxy-6,6,9-trimethyl-6H-benzo[c]chromen-3-yl)-2-methylpropanoate], the Ki on CB1 receptor is 0.5 nM; on mCB2 receptor, 0.7 nM; at hCB2 receptor, 1.4 nM.

On to `CC1(C)Oc2cc(CC(=O)O)cc(O)c2[C@@H]2CC(=O)CC[C@H]21` [Compound 3.1, 2-((6aR,10aR)-6a,7,8,9,10,10a-hexahydro-1-hydroxy-6,6-dimethyl-9-oxo-6H-benzo[c]chromen-3-yl)acetic acid], for which the Ki on CB1 receptor, on mCB2 receptor and on hCB2 receptor was > 10000 nM in each case.

Turning to `CC(C)(C(=O)O)c1cc(O)c2c(c1)OC(C)(C)[C@@H]1CC[C@H](O)C[C@@H]21` [Compound 3.7, 2-((6aR,9S,10aR)-6a,7,8,9,10,10a-hexahydro-1,9-dihydroxy-6,6-dimethyl-6H-benzo[c]chromen-3-yl)-2-methylpropanoic Acid], the Ki on CB1 receptor, on mCB2 receptor and on hCB2 receptor was > 10000 nM each time.

In the case of `CCCCCCC(C)(C)c1cc(O)c2c(c1)OC(C)(C)[C@@H]1CCOC(=O)C[C@@H]21` [Compound 3.11, (5 aR,11bR)-11-hydroxy-6,6-dimethyl-9-(2-methyloctan-2-yl)-4,5,5a,6-tetrahydro-1H-oxepino[4,5-c]chromen-2(11bH)-one], the Ki came to 99 nM on CB1 receptor and 802 nM on mCB2 receptor.

For the compound `CCOC(=O)C(C)(C)c1cc(O)c(-c2cc(Cl)cc(Cl)c2)c(OC)c1` [Compound 4.7, ethyl 2-(3′,5′-dichloro-2-hydroxy-6-methoxybiphenyl-4-yl)-2-methylpropanoate], the Ki at CB1 receptor was 1000 nM; at hCB2 receptor, 700 nM.

Take `CCCCOC(=O)Cc1cc(O)c2c(c1)OC(C)(C)[C@@H]1CCC(=O)C[C@@H]21` [Compound 3.2, Butyl-2-((6aR,10aR)-6a,7,8,9,10,10a-hexahydro-1-hydroxy-6,6-dimethyl-9-oxo-6H-benzo[c]chromen-3-yl)acetate]: the Ki on CB1 receptor, at mCB2 receptor and on hCB2 receptor was 1000 nM throughout.

Regarding `CCOC(=O)C(C)(C)c1cc(O)c(-c2cc(C)cc(C)c2)c(OC)c1` [Compound 4.5, Ethyl 2-(2-hydroxy-6-methoxy-3′,5′-dimethylbiphenyl-4-yl)-2-methylpropanoate], the Ki stood at 1000 nM on CB1 receptor, 108 nM at mCB2 receptor and 375 nM at hCB2 receptor.

Regarding `CC1=CC[C@@H]2[C@@H](C1)c1c(O)cc(CC(=O)O)cc1OC2(C)C` [Compound 1.26, 2-((6aR,10aR)-6a,7,10,10a-tetrahydro-1-hydroxy-6,6,9-trimethyl-6H-benzo[c]chromen-3-yl)acetic Acid], the Ki at CB1 receptor, on mCB2 receptor and at hCB2 receptor was > 10000 nM each time.

In the case of `CCCSC(=O)C(C)(C)c1cc(O)c2c(c1)OC(C)(C)[C@@H]1CC=C(C)C[C@@H]21` [Compound 1.30, S-propyl-2-((6aR,10aR)-6a,7,10,10a-tetrahydro-1-hydroxy-6,6,9-trimethyl-6H-benzo[c]chromen-3-yl)-2-methylpropanethioate], the results for the Ki at CB1 receptor and at hCB2 receptor were 0.5 nM and 0.7 nM, respectively.

`CCCCC(=O)OCC(C)(C)c1cc(O)c2c(c1)OC(C)(C)[C@@H]1CC=C(C)C[C@@H]21` [Compound 1.33, 2-((6aR, 10aR)-6a,7,10,10a-tetrahydro-1-hydroxy-6,6,9-trimethyl-6H-benzo[c]chromen-3-yl)-2-methyl propylpentanoate]: the values for the Ki on CB1 receptor and on hCB2 receptor were 0.5 nM and 1 nM, respectively.
